The subject of series [1] is anesthetized dog. Description: QT prolongation and arrhythmia induction in anesthetized dog with AV block and phenylephrine challenge. The settings on record: for Arrhythmia occurrence: individual dogs; for Mean ERP LV / Mean ERP RY: sot 8 + 4. The method, then: Dogs were pretreated with Atravet (0.07 mg/kg sc) and then 15 minutes later anesthetized with ketamine (5.3 mg/kg iv) and valium (0.25 mg/kg iv) followed by isoflurane (1-2%), intubated and subjected to mechanical ventilation. They were then subjected to AV block with radiofrequency ablation. A median sternotomy was performed and catheters were inserted into a femoral artery for blood pressure (BP) recording and into both femoral veins for infusion of test drugs. Bipolar electrodes were inserted into both ventricles for programmed stimulation determination of refractory periods (extrastimulus technique), as well as for evaluation of QT interval and QRS duration at various controlled basic cycle lengths (BCLs). TdP was induced by challenges of phenylephrine, which were given as bolus intravenous doses of 10, 20, 30, 40 and 50 μg/kg. After each dose, the ECG was monitored continuously to detect arrhythmias. […] Test drug effects were evaluated as per protocols below.
Data are presented as the mean ±S.E.M. Statistical comparisons were made with Student's t test. A 2-tailed probability<0.05 was taken to indicate statistical significance. In data tables, * denotes P<0.05, **P<0.01.
Group 2 (6 dogs): Five dogs received ranolazine as a 0.5 mg/kg iv load followed by a first, a second and a third continuous iv infusion of 1.0, 3.0 and 15 mg/kg/hr, respectively. One dog received ranolazine as a 1.5 mg/kg iv load followed by infusions of 15 and 30 mg/kg/hr. […] The phenylephrine challenges were then given, with all doses given at each drug infusion rate, and any arrhythmias monitor.

Series [2] has as its system guinea pig ventricular myocytes. Description: Action potential duration, EADs and triggered activity in guinea pig ventricular myocytes. As for the experimental part: Single ventricular myocytes were isolated from the hearts of adult, male guinea pigs (Harlan). In brief, the hearts were perfused with warm (35° C.) and oxygenated solutions in the following order: 1) Tyrode solution containing (in mmol/L) 140 NaCl, 4.6 KCl, 1.8 CaCl2, 1.1 MgSO4, 10 glucose and 5 HEPES, pH 7.4, for 5 minutes; 2) Ca^2+-free solution containing (in mmol/L) 100 NaCl, 30 KCl, 2 MgSO4, 10 glucose, 5 HEPES, 20 taurine, and 5 pyruvate, pH 7.4, for 5 minutes; and 3) Ca^2+-free solution containing sollagenase (120 units/ml) and albumin (2 mg/ml), for 20 minutes. At the end of the perfusion, the ventricles were removed, minced, and gently shaken for 10 minutes in solution #3. Isolated cells were harvested from the cell suspension.
Myocytes were placed into a recording chamber and superfused with Tyrode solution at 35° C. Drugs were applied via the superfusate. Action potentials were measured using glass microelectrodes filled with a solution containing (in mmol/L) 120 K-aspartate, 20 KCl, 1 MgCl2, 4 Na2ATP, 0.1 Na3GTP, 10 glucose, 1 EGTA and 10 HEPES (pH 7.2). Microelectrode resistance was 1-3 MΩ. An Axopatch-200 amplifier, a DigiData-1200A interface and pCLAMP6 software were used to perform electrophysiological measurements. Action potentials were induced by 5-ms depolarizing pulses applied at various frequencies as indicated. The duration of action potential was measured at 50% (APD50) and 90% (APD90) repolarization.
1) Ventricular myocytes were electrically stimulated at a frequency of 0.5, 1 or 2 Hz. Each myocyte was treated with 3, 10 and 30 μmol/L ranolazine. The effect of ranolazine on action potential duration at each pacing frequency was determined from 4 myocytes.
2) Action potentials were elicited at a frequency of 0.25 Hz, and the effect of ranolazine (10 μmol/L) on action potential duration was examined in the presence of 5 μmol/L quinidine. Experiments were performed on 4 myocytes.
Following the procedures and protocols of Example 21, guinea pig ventricular myocytes were electrically stimulated in the presence of ranolazine either alone or in the presence of ATX II [a sea anemone toxin known to mimic LQT3 syndrome by slowing Na^+-channel inactivation from the open state and thereby increasing the peak and late Na^+ current (INa) of cardiomyocytes]. ATXII is known to induce early afterdepolarizations (EADs) and triggered activity and ventricular tachycardia.
Action potentials were recorded using the whole-cell patch-electrode technique. Ventricular monophasic action potentials and electrograms were recorded from isolated hearts.
The ventricular APD of guinea pigs isolated myocytes and hearts was measured, respectively, at 50% (APD50) and 90% (MAPD90) repolarization.

Series [3] has as its system guinea pig isolated heart. As to the kind of experiment: K-H buffer perfused guinea pig isolated heart: MAP duration, EADs and VT. The source says:
To study the effect of ranolazine on ATXII induced MAP (monophasic action potential) duration prolongation, EADs and ventricular tachyarrhythmia (VT), the K—H buffer perfused guinea pig isolated heart model was used.
Multiple EADs and sustained depolarizations were frequently observed.

Like-named read-outs stand apart in the source and are kept apart here. Marks after values point to notes of the source that are not given here.

We go through five compounds from patent US20080109040A1, “METHOD OF TREATING ARRHYTHMIAS” (priority 2002, published 2008).

For the compound `CC(C)NCC(O)c1ccc(NS(C)(=O)=O)cc1` (racemic) [sotalol, reference compound], the Arrhythmia occurrence entry was “death” in series [1] (Sot 8 + 4 plus phenylephrine 10 μg/kg, — = none); “death” in series [1] (Sot 8 + 4 plus phenylephrine 30 μg/kg); “tdp VF death” in series [1] (Sot 8 + 4 plus phenylephrine 40 μg/kg); “death” in series [1] (Sot 8 + 4 plus phenylephrine 50 μg/kg). The “Effect on QRS duration” value in series [1] (dog, in vivo) was “did not affect”. For the same compound, the “Mean ERP LV” value in series [1] (BCL 300) was 201.25 ± 18.75 ms; in series [1] (BCL 400), 226.25 ± 21.25 ms; in series [1] (BCL 600), 262.50 ± 27.5* ms; in series [1] (BCL 1000), 286.25 ± 16.25* ms. The “Mean ERP RY” value in series [1] (BCL 300) is 181.33 ± 8.21** ms; in series [1] (BCL 400) it was 195.67 ± 7.53** ms; in series [1] (BCL 600) it was 223.50 ± 9.07** ms; in series [1] (BCL 1000), 255.50 ± 9.56** ms. Moreover, the “Death from torsade de pointes degenerating to ventricular fibrillation” value in series [1] (sotalol infusion and a phenylephrine bolus) is reported as “All the dogs eventually died”.
`CCS(=O)(=O)N(C)[C@H]1c2cc(C#N)ccc2OC(C)(C)[C@@H]1O` [293B, reference compound]: the “Induction of EADs” value in series [2] is on record as “induced EADs in the presence, but not in the absence, of ATX-II”. For the same compound, the “Increase of APD50” value in series [2] (293B 30 μmol/L, absence of ATX-II) came to 40±7%; in series [2] (293B 30 μmol/L, presence of ATX-II), 202±59%. Also, the “Increase of MAPD90” value in series [3] (293B 1 μmol/L alone) amounted to 6.3±0.2%; in series [3] (293B applied with ATX-II), 31.6±0.1%.
Consider `Cc1cccc(CCN2CCC(C(=O)c3ccc(NS(C)(=O)=O)cc3)CC2)n1` [E-4031, reference compound], for which the “Increase of APD50” value was 11±2% in series [2] (E-4031 1 μmol/L, absence of ATX-II) and 104±41% in series [2] (E-4031 1 μmol/L, presence of ATX-II). In addition, the “Increase of MAPD90” value in series [3] (E-4031 1 μmol/L alone) amounted to 30.1±0.1%; in series [3] (E-4031 applied with ATX-II) it was 127.1±0.4%.
For the compound `C=C[C@H]1C[N@@]2CC[C@H]1C[C@@H]2[C@@H](O)c1ccnc2ccc(OC)cc12` [quinidine, reference compound], in series [2] (quinidine 5 μmol/L, 0.25 Hz), the “Effect on duration of action potential” value is “increased the duration of action potential”.
With “ATXII: a sea anemone toxin known to mimic LQT3 syndrome by slowing Na+-channel inactivation from the open state [reference compound]”, the “Increase of APD50” value in series [2] (ATX-II 3 nmol/L alone) stood at 6±2%. For the same compound, the “Induction of EADs” value in series [2] (ATX-II 10-20 nmol/L) and in series [2] (ATXII 10-40 nmol/L) was “induced EADs in all cells” throughout. In addition, in series [2] (ATX-II 10-20 nmol/L, n=24), the “APD50 in the presence of ATX-II” value is listed as 1,148±49 ms. Besides, in series [2] (ATXII 10-40 nmol/L, n=20), the “APD50 in the presence of ATXII” value is 1,154±61 ms. Besides, the “Increase of MAPD90” value in series [3] (ATX-II 7 nmol/L alone) is given as 32±0.1%. The “Isolated hearts with EADs and (polymorphic) VT” value is given as 10/14 in series [3] (ATXII 10-20 nM) and 10 of 14 in series [3] (ATXII 10-20 nM, listed as ATX-II). Also, the “Prolongation of MAPD90” value in series [3] (ATXII 10-20 nM, 4 hearts without rapid ventricular arrhythmia) was 6%.
